Measured values published in PubChem BioAssay AID2060900 (Molecular Pharmacology Branch, DTP, NCI, 2025).

Test system: 521955-158-R2-J5-PDC complex spheroids, viability
Assay: Anticancer human tumor 521955-158-R2-J5-PDC patient-derived pancreatic carcinoma cell line growth inhibition [RAS]
Conditions: for IC50: curve of first compound; for viability, T/C: stronger effect = lower value
Excerpt: RAS pathway inhibitors in Combinations in Complex Spheroids
A high-throughput screen of multi-cell type tumor spheroids was designed to identify active combinations of RAS pathway inhibitors and targeted small molecules. Complex spheroids include a stromal component modeled by human endothelial cells (HUVEC) and fibroblasts modeled by human mesenchymal stem cells (MSCs). The concentration ranges selected for each drug and investigational agent were based upon clinically achievable concentrations if the clinical Cmax of the agent was known.
Compounds. The drugs and investigational agents: abemaciclib (NSC768073), cobimetinib (NSC768068), divarasib (GDC6063, NSC841802), docetaxel (NSC628503), GDC-1971 (RLY-1971, NSC841576), gemcitabine (NSC613327), inavolisib (NSC800729), ipatasertib (NSC767898), KB-0742 (NSC834161), MRTX-1133 (NSC836407), osimertinib (NSC779217), RMC-4630 (NSC839698), RMC-6236 (NSC851965), RMC-6291 (NSC852671), Ro-3306 (NSC812927), sapanisertib (NSC764658), SN-38 (NSC673596), staurosporine (NSC755774), SY5609 (NSC837396), and tovorafenib (DAY101, NSC766906), were obtained from the National Cancer Institute (NCI) Developmental Therapeutics Program Chemical Repository. The FDA-approved anticancer drug set is available from the NCI Developmental Therapeutics Program. […] The stock solutions were prepared in dimethyl sulfoxide (DMSO, Sigma-Aldrich, St. Louis, MO, cat. D2650) at 800-fold the tested concentration and stored at -70 degrees C prior to their use. All drugs and investigational agents were tested over a range starting from a high concentration at or near the clinical Cmax and decreasing in half-log increments. If the clinical Cmax for an agent had not been determined, the highest concentration tested was 10 microM.
Cell Culture. All cells were maintained in an incubator at 37 degrees C and 5% CO2 with 95% humidity. The PDC lines were cultured according to standard operating procedures established by the NCI PDMR. All PDCs were thawed and cultured in Matrigel-coated flasks prepared with a working solution of 1X Ham's F-12 nutrient mix, without supplementation (Invitrogen, Waltham, MA, cat. 11765054), 100 U/mL penicillin-streptomycin (Invitrogen, cat. 15140122), and 2.5% Matrigel (Corning Inc., Corning, NY, cat. 354248) for the first three passages. The 362531-283-R-J2-PDC and 782815-120-R-J1-PDC lines were cultured in 6C/Colon 1B media, which includes advanced DMEM/F-12 (Thermo Fisher Scientific, cat. 12634028), 10 mM HEPES (Thermo Fisher Scientific, cat. 15630080), 1X GlutaMAX supplement (Thermo Fisher Scientific, cat. 35050061), 0.1 mg/mL primocin (InvivoGen, San Diego, CA, cat. ant-pm-2), 10% defined fetal bovine serum, heat inactivated (HyClone Laboratories Inc., Logan, UT, cat. SH30070.03HI), 50% L-WRN conditioned media (ATCC, cat. CRL-3276), 1.25 mM N-Acetyl-L-cysteine (Sigma-Aldrich, cat. A9165), 10 mM nicotinamide (Sigma-Aldrich, cat. N0636), 1X B-27 supplement (Thermo Fisher Scientific, cat. 17504044), 1X N-2 supplement (Thermo Fisher Scientific, cat. 17502048), 50 ng/mL human EGF (Thermo Fisher Scientific, cat. PHG0311), and 10 microM Y-27632 dihydrochloride (Tocris Bioscience, cat. 1254). The K12877-001-R-J1-PDC line was cultured in 6I media, which includes all 6C/Colon 1B media plus 10 ng/mL human FGF-10 (PeproTech, cat. 100-26), 1 ng/mL human FGF-2 (PeproTech, cat. 100-18B), 1 µM prostaglandin E2 (Tocris Bioscience, cat. 2296), […] hydrocortisone (Sigma-Aldrich, cat. H4001), and […] bovine insulin (Sigma-Aldrich, cat. I6634). The K86415-001-R-J1-PDC line was cultured in 6D media, which includes all 6C/Colon 1B media components minus the L-WRN conditioned media. The 485176-168-R4-J1-PDC was cultured in PANC media, which includes all 6C/Colon 1B media plus 100 ng/mL human FGF-10 (PeproTech, cat. 100-26), 500 nM SB-431542 (Selleckchem, cat. S1067), and 10 nM gastrin (Tocris Bioscience, cat. 3006). […]
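Further: compound exposure lasted seven days before the viability read.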
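Wherever viability, T/C is given: spheroids also contain HUVEC endothelial cells and mesenchymal stem cells as stroma.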

`C[C@@H](NC(=O)c1ncnc(N)c1Cl)c1ncc(C(=O)Nc2cc(C(F)(F)F)c(Cl)cn2)s1` + C#Cc1c(F)ccc2cc(O)cc(-c3ncc4c(N5CC6CCC(C5)N6)nc(OCC56CCCN5CC(F)C6)nc4c3F)c12 was tested, and the IC50 (second compound 0.0316 µM) was > 10000 nM, the IC50 (second compound 0.1 µM) was 531 nM and the IC50 (second compound 0.316 µM) was 3290 nM. The IC50 (second compound 1 µM) was 493 nM, the IC50 (second compound 3.16 µM) was < 31.6 nM and the IC50 (second compound 10 µM) was < 31.6 nM. The viability, T/C (second compound 0.0316 µM, first compound 0.0316 µM) was 57.8%, the viability, T/C (second compound 0.0316 µM, first compound 0.1 µM) was 58.3% and the viability, T/C (second compound 0.0316 µM, first compound 0.316 µM) was 59.8%. It also gave a viability, T/C (second compound 0.0316 µM, first compound 1 µM) of 54.3%, a viability, T/C (second compound 0.0316 µM, first compound 3.16 µM) of 57.4% and a viability, T/C (second compound 0.0316 µM, first compound 10 µM) of 46%. It also gave a viability, T/C (second compound 0.1 µM, first compound 0.0316 µM) of 65.5%, a viability, T/C (second compound 0.1 µM, first compound 0.1 µM) of 58.3% and a viability, T/C (second compound 0.1 µM, first compound 0.316 µM) of 46.9%. It also gave a viability, T/C (second compound 0.1 µM, first compound 1 µM) of 47.3%, a viability, T/C (second compound 0.1 µM, first compound 3.16 µM) of 57.2% and a viability, T/C (second compound 0.1 µM, first compound 10 µM) of 42.3%. The viability, T/C (second compound 0.316 µM, first compound 0.0316 µM) was 62%, the viability, T/C (second compound 0.316 µM, first compound 0.1 µM) was 55.7% and the viability, T/C (second compound 0.316 µM, first compound 0.316 µM) was 58.4%. The viability, T/C (second compound 0.316 µM, first compound 1 µM) was 53.2%, the viability, T/C (second compound 0.316 µM, first compound 3.16 µM) was 52.4% and the viability, T/C (second compound 0.316 µM, first compound 10 µM) was 37.9%. The viability, T/C (second compound 1 µM, first compound 0.0316 µM) was 61.2%, the viability, T/C (second compound 1 µM, first compound 0.1 µM) was 48.4% and the viability, T/C (second compound 1 µM, first compound 0.316 µM) was 47.5%. For the same compound, the viability, T/C (second compound 1 µM, first compound 1 µM) was 51%, the viability, T/C (second compound 1 µM, first compound 3.16 µM) was 45.3% and the viability, T/C (second compound 1 µM, first compound 10 µM) was 33.5%. It also gave a viability, T/C (second compound 3.16 µM, first compound 0.0316 µM) of 51.3%, a viability, T/C (second compound 3.16 µM, first compound 0.1 µM) of 49.1% and a viability, T/C (second compound 3.16 µM, first compound 0.316 µM) of 36.6%. The viability, T/C (second compound 3.16 µM, first compound 1 µM) was 54.4%, the viability, T/C (second compound 3.16 µM, first compound 3.16 µM) was 43.5% and the viability, T/C (second compound 3.16 µM, first compound 10 µM) was 32.7%. The viability, T/C (second compound 10 µM, first compound 0.0316 µM) was 41.1%, the viability, T/C (second compound 10 µM, first compound 0.1 µM) was 38.2% and the viability, T/C (second compound 10 µM, first compound 0.316 µM) was 37.3%. The viability, T/C (second compound 10 µM, first compound 1 µM) was 37.5%, the viability, T/C (second compound 10 µM, first compound 3.16 µM) was 35.1% and the viability, T/C (second compound 10 µM, first compound 10 µM) was 22.8%.
